Laboratory results published in the supplement of paper PMC10307832.

How the values were obtained:
Assay in all cases: relative viability (nuclei count vs DMSO), 5 days (fraction); higher = more cells survive
[1] = compound: N#CC[C@H](C1CCCC1)n1cc(-c2ncnc3[nH]ccc23)cn1 [Ruxolitinib] + COc1cc2c(Oc3ccc(NC(=O)C4(C(=O)Nc5ccc(F)cc5)CC4)cc3F)ccnc2cc1OCCCN1CCOCC1 [Foretinib] (partner 0.25 µM)
In short: (§1)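 A single step with final 0.05% Triton X-100, 1% formaldehyde and 1 ug/ml Hoechst fixed the cells and stained nuclei 5 days after treatment. Lung cancer cell lines in 1536-well plates had been treated by pin tool the day after seeding with one drug alone or a fixed anchor-drug dose plus five library-drug doses (not always all listed) in √10 steps, and nuclei were counted on 4× images. Relative viability is the ratio of nuclei in treated wells to nuclei in vehicle wells, taken as the median of duplicate plates.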

[2] = compound: N#CC[C@H](C1CCCC1)n1cc(-c2ncnc3[nH]ccc23)cn1 [Ruxolitinib] + CS(=O)(=O)N1CCN(Cc2cc3nc(-c4cccc5[nH]ncc45)nc(N4CCOCC4)c3s2)CC1 [Pictilisib] (partner 1 µM)
In short: as §1

[3] = compound: N#CC[C@H](C1CCCC1)n1cc(-c2ncnc3[nH]ccc23)cn1 [Ruxolitinib] + CC(=O)c1c(C)c2cnc(Nc3ccc(N4CCNCC4)cn3)nc2n(C2CCCC2)c1=O [Palbociclib] (partner 0.5 µM)
In short: as §1

[4] = compound: CS(=O)(=O)c1ccc(C(=O)Nc2ccc(Cl)c(-c3ccccn3)c2)c(Cl)c1 [Vismodegib] + COc1cccc2cc(-c3nc([C@H]4CC[C@H](C(=O)O)CC4)n4ncnc(N)c34)[nH]c12 [OSI-027] (partner 0.5 µM)
In short: as §1

Cell Line | relative viability ([1]; first compound 0.08 µM) | relative viability ([1]; first compound 0.253 µM) | relative viability ([1]; first compound 0.8 µM) | relative viability ([1]; first compound 2.53 µM) | relative viability ([1]; first compound 8 µM) | relative viability ([2]; first compound 0.08 µM) | relative viability ([2]; first compound 0.253 µM) | relative viability ([2]; first compound 0.8 µM) | relative viability ([2]; first compound 2.53 µM) | relative viability ([2]; first compound 8 µM) | relative viability ([3]; first compound 0.08 µM) | relative viability ([3]; first compound 0.253 µM) | relative viability ([3]; first compound 0.8 µM) | relative viability ([3]; first compound 2.53 µM) | relative viability ([3]; first compound 8 µM) | relative viability ([4]; first compound 0.08 µM) | relative viability ([4]; first compound 0.253 µM) | relative viability ([4]; first compound 0.8 µM) | relative viability ([4]; first compound 2.53 µM) | relative viability ([4]; first compound 8 µM)
NCI-H1993 | 0.752 | 0.698 | 0.821 | 0.857 | 0.817 | 0.809 | 0.754 | 0.855 | 0.781 | 0.846 | 0.519 | 0.552 | 0.807 | 0.68 | 0.707 | 0.572 | 0.479 | 0.579 | 0.562 | 0.594
NCI-H2009 | 1.21 | 1.27 | 1.23 | 1.15 | 0.876 | 0.913 | 0.901 | 0.987 | 0.508 | 0.658 | 0.289 | 0.216 | 0.241 | 0.154 | 0.139 | 0.688 | 0.619 | 0.612 | 0.608 | 0.738
NCI-H2023 | 0.682 | 0.897 | 0.947 | 0.978 | 1.32 | 0.251 | 0.188 | 0.247 | 0.215 | 0.228 | 0.42 | 0.4 | 0.361 | 0.387 | 0.397 | 0.464 | 0.354 | 0.411 | 0.322 | 0.478
NCI-H2085 | 1.03 | 0.984 | 1.13 | 0.797 | 0.732 | 0.564 | 0.469 | 0.419 | 0.463 | 0.611 | 0.453 | 0.468 | 0.474 | 0.39 | 0.369 | 0.9 | 0.732 | 0.756 | 0.74 | 0.662
NCI-H2087 | 1.03 | 0.983 | 1.28 | 0.975 | 0.772 | 0.798 | 0.937 | 0.645 | 0.335 | 0.842 | 0.26 |  | 0.271 | 0.18 | 0.239 | 0.645 | 0.476 | 0.398 | 0.618 | 0.39
NCI-H2126 | 1.09 | 1.27 | 1.2 | 1.12 | 1.16 | 0.493 | 0.472 | 0.531 | 0.55 | 0.582 | 0.382 | 0.333 | 0.371 | 0.363 | 0.363 | 0.793 | 0.759 |  | 0.69 | 0.604
NCI-H2170 | 0.992 | 0.609 | 0.602 | 0.951 | 0.943 | 0.36 | 0.28 | 0.418 | 0.303 | 0.253 | 0.382 | 0.39 | 0.412 | 0.359 | 0.407 | 0.658 | 0.609 | 0.686 | 0.723 | 0.699
NCI-H2228 | 0.86 | 0.911 | 0.794 | 0.717 | 0.429 | 0.584 | 0.362 | 0.365 | 0.255 | 0.246 | 0.622 | 0.812 | 0.843 | 0.713 | 0.219 | 0.7 | 0.636 | 0.587 | 0.532 | 0.467
NCI-H2347 |  | 0.84 | 0.856 | 0.769 | 1.06 | 0.437 | 0.637 | 0.554 | 0.485 | 0.674 | 0.425 | 0.395 | 0.42 | 0.43 | 0.478 | 0.568 | 0.454 | 0.304 | 0.425 | 0.454
NCI-H2405 |  | 1.06 | 1.17 | 1.08 | 0.875 |  | 0.338 | 0.463 | 0.286 | 0.269 | 0.52 | 0.514 | 0.589 | 0.295 | 0.389 | 0.621 | 0.615 | 0.573 | 0.621 | 0.639
NCI-H3122 | 0.942 | 0.873 | 1.01 | 0.881 | 0.948 | 0.538 | 0.509 | 0.552 | 0.357 | 0.562 | 0.182 | 0.228 | 0.208 | 0.166 | 0.191 | 0.971 | 0.863 | 0.84 | 0.849 | 0.981
PC-3 [JPC-3] | 0.859 | 1.01 | 0.975 | 0.957 | 0.871 | 0.507 | 0.752 | 0.763 | 0.678 | 0.7 |  | 0.596 | 0.579 | 0.566 | 0.553 | 0.823 | 0.756 | 0.718 | 0.728 | 0.673
PC-14 |  | 0.947 | 0.971 | 0.875 | 0.828 |  | 0.618 | 0.799 | 0.654 | 0.476 |  | 0.546 | 0.595 | 0.46 | 0.304 | 0.748 | 0.686 | 0.797 | 0.738 | 0.836
RERF-LC-KJ | 0.862 | 0.95 | 0.914 | 0.921 | 0.927 | 0.517 | 0.447 | 0.656 | 0.53 | 0.393 | 1.03 | 1.13 | 1.25 | 1.13 | 0.934 | 0.678 | 0.568 | 0.621 | 0.593 | 0.487
SK-LU-1 | 0.813 | 0.806 | 0.876 | 0.75 | 0.676 | 0.657 | 0.723 | 0.538 | 0.607 | 0.638 | 0.426 | 0.416 | 0.421 | 0.374 | 0.336 | 0.414 | 0.39 | 0.384 | 0.401 | 0.345
SK-MES-1 | 0.927 | 0.714 | 0.955 | 0.788 | 0.768 | 0.268 | 0.337 | 0.359 | 0.394 | 0.335 | 0.331 | 0.336 | 0.332 | 0.305 | 0.321 | 0.729 | 0.576 | 0.598 | 0.59 | 0.577
SW 1573 | 0.979 | 0.916 | 1.1 | 0.834 | 0.885 | 0.495 | 0.425 | 0.546 | 0.445 | 0.429 | 0.436 | 0.382 | 0.411 | 0.546 | 0.299 | 0.742 | 0.595 | 0.682 | 0.521 | 0.574
